Source: US12097171B2, “Petrolatum-based PHMB compositions and methods of treatment for onychomycosis” (GLOBAL HEALTH SOLUTIONS LLC, priority 2015, dated 2024)
Where “and” joins values, the source holds several entries; their conditions need not be identical. Identical values can stand only once.

Assays:
[1] = tested on: skin of female albino New Zealand White rabbits; experiment: Rabbit skin irritation; details: per rabbit, 24, 48 and 72 hour observations, two test sites, sulfate
Description: Within 24 hours to 4 hours before test application, the backs of female albino New Zealand White rabbits were clipped free of hair, exposing 2 test and 2 control areas on each side of the spine with a size of approximately 15 cm×15 cm. The two test sites are located on the left cranial section and the right caudal section of the dorsal region. The two control sites are located on the left caudal and right cranial section of the dorsal region. FIG. 4 depicts the arrangement of test and control sites. The exposed skin is wiped with alcohol and dried. Rabbits of acceptable skin quality were selected and used for testing.
A 25×25 mm gauze patch saturated with 0.5 mL of 0.9% NaCl is used for the control and applied to the clipped control sites. The patches are secured using hypoallergenic, waterproof, surgical tape over the test and control sites. The animal's trunk is securely wrapped so as to maintain the position of the patches. Patches are left applied for a minimum of four hours.
After patch removal, the test and control sites were then scored for erythema and edema at 1, 24, 48 and 72 hours after patch removal. Only the 24, 48, and 72 hour observations were scored and used for calculations. If no response was expected, testing was conducted using three animals per test article. If irritation was anticipated, one animal was tested initially. If the first animal received a score of 2 or less for either erythema or edema, 2 additional rabbits were used to conclude the test.
This total was divided by the total number of observations. The same was done for the control sites. […] These scores for each animal were added and divided by the total number of animals to give the Primary Irritation Index. […] For any response, the Maximum Irritation Response, the time of onset of the response and the time of maximum response was recorded.
To positively validate the test, 10% sodium dodecyl sulfate (SDS), which is a known dermal irritant, in petroleum jelly was applied to a 2.5 cm×2.5 cm gauze patch. As a negative control, 0.5 mL of 0.9% NaCl was applied to a 2.5 cm×2.5 cm gauze patch. […]

[2] = tested on: human subjects having onychomycosis; details: comparison value for standard of care; cited from earlier work

| SMILES | ED (edema) score total ([1]; patch at least four hours) | ER (erythema) score total ([1]; patch at least four hours) | ER + ED = Total [1] | effectiveness of standard of care treatments [2] |
| --- | --- | --- | --- | --- |
| CCCCCCCCCCCCOS(=O)(=O)[O-].[Na+] [10% SDS, sodium dodecyl sulfate] | 19 and 21 and 14 | 21 and 23 and 18 | 40 and 44 and 32 |  |
| CN(C/C=C/C#CC(C)(C)C)Cc1cccc2ccccc12 [Lamisil] |  |  |  | 20% |
